According to ChEMBL document CHEMBL1152385, “Cyanoguanidine-based lactam derivatives as a novel class of orally bioavailable factor Xa inhibitors” (Bioorg Med Chem Lett, 2009):
Active and inactive are the calls of the source. The calls are words filed in the database; no cut-off is given here.

What was measured:
[1] = biological target: 5-hydroxytryptamine receptor 1A (Homo sapiens) (UniProt P08908); experiment: Inhibition of human 5HT1A receptor at 10 uM
[2] = biological target: 5-hydroxytryptamine receptor 2B (Homo sapiens) (UniProt P41595); experiment: Inhibition of human 5HT2B receptor at 10 uM
[3] = biological target: Adrenergic receptor alpha-2 (Rattus norvegicus) (UniProt P22086+P19328+P22909); experiment: Inhibition of rat adrenergic alpha2 receptor at 10 uM
Rattus norvegicus [4] = organism: Rattus norvegicus; experiment: Inhibition of rat PCP receptor at 10 uM
Rattus norvegicus [5] = experiment: Antithrombotic activity in pentobarbital-anesthetized Sprague-Dawley rat assessed reduction in occlusion of arteries administered as initial 20 mg/kg, iv bolus dose followed by sustaining 20 mg/kg/h, iv dosing; assay type: functional, organism-based
[6] = Inhibition of sst receptor at 10 uM
[7] = biological target: Cholecystokinin receptor type A (Homo sapiens) (UniProt P32238); experiment: Inhibition of human CCK1 receptor at 10 uM
[8] = Inhibition of trypsin
[9] = biological target: Muscarinic acetylcholine receptor (Rattus norvegicus) (UniProt P08482+P08483+P08485+P08911+P10980); experiment: Inhibition of rat muscarinic receptor at 10 uM
[10] = biological target: Glutamate NMDA receptor (Rattus norvegicus) (UniProt P35439+Q00959+Q00960+Q00961+Q62645+Q8VHN2+Q9R1M7); experiment: Inhibition of rat NMDA receptor at 10 uM; assay type: protein-complex assay
[11] = biological target: Adrenergic receptor alpha-1 (Rattus norvegicus) (UniProt P15823+P23944+P43140); experiment: Inhibition of rat adrenergic alpha1 receptor at 10 uM
Rattus norvegicus [12] = experiment: Antithrombotic activity in pentobarbital-anesthetized Sprague-Dawley rat assessed as improved blood flow in arterial thrombosis administered as initial bolus iv dosing plus sustaining iv infusion; assay type: functional, organism-based
[13] = biological target: D(1A) dopamine receptor (Homo sapiens) (UniProt P21728); experiment: Inhibition of human dopamine D1 receptor at 10 uM
[14] = biological target: Beta-1 adrenergic receptor (Homo sapiens) (UniProt P08588); experiment: Inhibition of human adrenergic beta-1 receptor at 10 uM
[15] = biological target: Glucocorticoid receptor (Homo sapiens) (UniProt P04150); experiment: Inhibition of human glucocorticoid receptor at 10 uM
Rattus norvegicus [16] = organism: Rattus norvegicus; experiment: Inhibition of rat kainate receptor at 10 uM
cells = conditions: Homo sapiens, TC5
Mus musculus = organism: Mus musculus; experiment: Inhibition of mouse rolipram binding site at 10 uM
[17] = biological target: Adenosine receptor A1 (Homo sapiens) (UniProt P30542); experiment: Inhibition of human adenosine A1 receptor at 10 uM
[18] = biological target: Histamine H2 receptor (Cavia porcellus) (UniProt P47747); experiment: Inhibition of guinea pig histamine H2 receptor at 10 uM
[19] = biological target: Beta-2 adrenergic receptor (Homo sapiens) (UniProt P07550); experiment: Inhibition of human adrenergic beta2 receptor at 10 uM
Rattus norvegicus [20] = organism: Rattus norvegicus; experiment: animal or person; conditions: Sprague-Dawley, Vena cava, iv
Rattus norvegicus [21] = organism: Rattus norvegicus; experiment: Inhibition of rat AMPA receptor at 10 uM
[22] = biological target: Sodium-dependent dopamine transporter (Rattus norvegicus) (UniProt P23977); experiment: Inhibition of rat dopamine transporter at 10 uM
Rattus norvegicus [23] = organism: Rattus norvegicus; experiment: Inhibition of rat choline transporter at 10 uM
[24] = biological target: Sodium-dependent noradrenaline transporter (Homo sapiens) (UniProt P23975); experiment: Inhibition of human norepinephrine transporter at 10 uM
[25] = biological target: Progesterone receptor (Homo sapiens) (UniProt P06401); experiment: Inhibition of human progesterone receptor at 10 uM
Rattus norvegicus [26] = organism: Rattus norvegicus; experiment: animal or person; conditions: Sprague-Dawley, iv
[27] = biological target: D(2) dopamine receptor (Homo sapiens) (UniProt P14416); experiment: Inhibition of human dopamine D2S receptor at 10 uM
Rattus norvegicus [28] = organism: Rattus norvegicus; experiment: Inhibition of rat opioid receptor at 10 uM
Rattus norvegicus [29] = organism: Rattus norvegicus; experiment: Inhibition of rat 5-HT receptor at 10 uM
Rattus norvegicus [30] = organism: Rattus norvegicus; experiment: Inhibition of rat GABA transporter at 10 uM
[31] = Inhibition of sodium channel
Rattus norvegicus [32] = organism: Rattus norvegicus; experiment: Inhibition of rat central-type benzodiazepine receptor at 10 uM
Rattus norvegicus [33] = experiment: Ex vivo anticoagulant activity in pentobarbital-anesthetized Sprague-Dawley rat assessed as prolongation of prothrombin time administered as initial bolus iv dosing followed by sustaining iv infusion; assay type: functional, organism-based
[34] = biological target: Estrogen receptor (Homo sapiens) (UniProt P03372); experiment: Inhibition of human ERalpha receptor at 10 uM
Rattus norvegicus [35] = organism: Rattus norvegicus; experiment: Inhibition of rat sodium channel site 2 at 10 uM
[36] = biological target: Histamine H1 receptor (Cavia porcellus) (UniProt P31389); experiment: Inhibition of guinea pig histamine H1 receptor at 10 uM
[37] = Inhibition of tryptase
Rattus norvegicus [38] = organism: Rattus norvegicus; experiment: Inhibition of rat chloride channel at 10 uM

Chain of Progesterone receptor (Homo sapiens) (P06401 whole entry): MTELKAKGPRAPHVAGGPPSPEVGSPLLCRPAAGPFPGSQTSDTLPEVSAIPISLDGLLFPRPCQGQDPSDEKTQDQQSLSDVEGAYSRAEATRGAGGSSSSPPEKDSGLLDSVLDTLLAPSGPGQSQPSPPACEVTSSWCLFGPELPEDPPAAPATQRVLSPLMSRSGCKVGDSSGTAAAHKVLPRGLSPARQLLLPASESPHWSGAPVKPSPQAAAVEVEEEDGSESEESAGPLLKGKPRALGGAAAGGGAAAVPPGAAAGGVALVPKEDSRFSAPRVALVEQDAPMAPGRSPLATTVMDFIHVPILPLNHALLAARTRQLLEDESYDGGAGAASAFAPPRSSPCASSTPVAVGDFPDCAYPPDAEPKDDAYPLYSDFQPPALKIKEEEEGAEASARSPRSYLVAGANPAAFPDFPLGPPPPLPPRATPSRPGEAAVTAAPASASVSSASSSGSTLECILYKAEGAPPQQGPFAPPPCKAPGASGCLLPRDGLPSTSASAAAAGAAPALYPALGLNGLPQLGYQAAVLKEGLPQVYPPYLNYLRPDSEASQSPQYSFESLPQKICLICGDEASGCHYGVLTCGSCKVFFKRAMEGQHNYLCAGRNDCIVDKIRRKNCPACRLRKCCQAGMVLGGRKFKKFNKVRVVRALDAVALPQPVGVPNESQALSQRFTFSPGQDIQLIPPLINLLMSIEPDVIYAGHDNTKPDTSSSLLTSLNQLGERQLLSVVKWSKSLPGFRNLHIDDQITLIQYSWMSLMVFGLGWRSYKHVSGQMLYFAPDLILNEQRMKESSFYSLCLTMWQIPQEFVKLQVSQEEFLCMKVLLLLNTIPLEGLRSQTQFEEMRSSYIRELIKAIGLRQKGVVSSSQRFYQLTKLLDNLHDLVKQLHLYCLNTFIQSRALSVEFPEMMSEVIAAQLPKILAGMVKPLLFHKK
Chain of Histamine H2 receptor (Cavia porcellus) (P47747 whole entry): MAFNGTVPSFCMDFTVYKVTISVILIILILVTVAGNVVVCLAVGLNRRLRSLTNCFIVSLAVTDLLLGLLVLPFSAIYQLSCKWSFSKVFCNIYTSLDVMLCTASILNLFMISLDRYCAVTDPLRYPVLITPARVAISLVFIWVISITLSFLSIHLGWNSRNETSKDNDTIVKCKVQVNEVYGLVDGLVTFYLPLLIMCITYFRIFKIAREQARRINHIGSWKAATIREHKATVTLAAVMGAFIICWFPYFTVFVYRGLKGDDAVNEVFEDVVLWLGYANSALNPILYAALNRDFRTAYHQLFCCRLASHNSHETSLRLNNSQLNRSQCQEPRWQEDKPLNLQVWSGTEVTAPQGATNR
Chain of Beta-1 adrenergic receptor (Homo sapiens) (P08588 whole entry, looked up): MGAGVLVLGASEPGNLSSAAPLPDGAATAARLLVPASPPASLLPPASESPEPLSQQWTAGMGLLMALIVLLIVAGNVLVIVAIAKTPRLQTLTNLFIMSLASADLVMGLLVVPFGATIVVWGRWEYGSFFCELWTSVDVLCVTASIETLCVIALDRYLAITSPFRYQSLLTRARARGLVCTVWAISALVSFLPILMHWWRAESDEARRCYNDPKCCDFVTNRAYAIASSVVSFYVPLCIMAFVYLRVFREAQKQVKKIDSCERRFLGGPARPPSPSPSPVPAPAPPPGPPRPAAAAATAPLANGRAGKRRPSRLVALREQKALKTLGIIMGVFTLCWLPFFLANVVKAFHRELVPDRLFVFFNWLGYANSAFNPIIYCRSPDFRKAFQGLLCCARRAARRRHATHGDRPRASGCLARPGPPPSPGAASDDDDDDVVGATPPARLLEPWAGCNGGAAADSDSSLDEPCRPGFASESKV
Chain of Sodium-dependent noradrenaline transporter (Homo sapiens) (P23975 whole entry): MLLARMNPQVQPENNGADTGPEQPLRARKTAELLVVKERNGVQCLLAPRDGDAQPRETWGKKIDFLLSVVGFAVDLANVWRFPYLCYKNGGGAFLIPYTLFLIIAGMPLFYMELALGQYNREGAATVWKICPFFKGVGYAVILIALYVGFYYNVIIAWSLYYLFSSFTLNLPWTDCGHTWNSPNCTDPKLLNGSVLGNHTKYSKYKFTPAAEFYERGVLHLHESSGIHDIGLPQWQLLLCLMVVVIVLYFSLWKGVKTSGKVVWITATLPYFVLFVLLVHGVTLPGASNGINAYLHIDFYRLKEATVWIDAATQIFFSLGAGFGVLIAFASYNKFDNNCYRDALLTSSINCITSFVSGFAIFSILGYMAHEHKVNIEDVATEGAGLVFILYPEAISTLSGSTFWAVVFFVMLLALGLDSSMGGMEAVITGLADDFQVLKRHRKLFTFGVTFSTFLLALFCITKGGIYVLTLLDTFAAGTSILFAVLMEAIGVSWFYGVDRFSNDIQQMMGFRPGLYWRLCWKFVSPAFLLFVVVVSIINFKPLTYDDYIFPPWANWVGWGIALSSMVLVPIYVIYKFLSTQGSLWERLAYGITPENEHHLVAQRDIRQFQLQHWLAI
Chain of Cholecystokinin receptor type A (Homo sapiens) (P32238 whole entry): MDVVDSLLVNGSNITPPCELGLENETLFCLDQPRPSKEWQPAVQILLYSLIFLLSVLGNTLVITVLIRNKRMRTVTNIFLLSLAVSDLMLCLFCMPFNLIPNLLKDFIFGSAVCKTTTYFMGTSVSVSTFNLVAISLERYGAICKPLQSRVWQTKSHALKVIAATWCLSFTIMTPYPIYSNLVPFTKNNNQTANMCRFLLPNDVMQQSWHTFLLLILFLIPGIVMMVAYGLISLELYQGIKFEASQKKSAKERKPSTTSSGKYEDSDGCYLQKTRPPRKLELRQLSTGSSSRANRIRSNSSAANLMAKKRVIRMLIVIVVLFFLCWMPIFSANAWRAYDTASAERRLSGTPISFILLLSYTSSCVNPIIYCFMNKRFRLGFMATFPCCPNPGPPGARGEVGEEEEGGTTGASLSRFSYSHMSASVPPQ
Chain of Glucocorticoid receptor (Homo sapiens) (P04150 whole entry): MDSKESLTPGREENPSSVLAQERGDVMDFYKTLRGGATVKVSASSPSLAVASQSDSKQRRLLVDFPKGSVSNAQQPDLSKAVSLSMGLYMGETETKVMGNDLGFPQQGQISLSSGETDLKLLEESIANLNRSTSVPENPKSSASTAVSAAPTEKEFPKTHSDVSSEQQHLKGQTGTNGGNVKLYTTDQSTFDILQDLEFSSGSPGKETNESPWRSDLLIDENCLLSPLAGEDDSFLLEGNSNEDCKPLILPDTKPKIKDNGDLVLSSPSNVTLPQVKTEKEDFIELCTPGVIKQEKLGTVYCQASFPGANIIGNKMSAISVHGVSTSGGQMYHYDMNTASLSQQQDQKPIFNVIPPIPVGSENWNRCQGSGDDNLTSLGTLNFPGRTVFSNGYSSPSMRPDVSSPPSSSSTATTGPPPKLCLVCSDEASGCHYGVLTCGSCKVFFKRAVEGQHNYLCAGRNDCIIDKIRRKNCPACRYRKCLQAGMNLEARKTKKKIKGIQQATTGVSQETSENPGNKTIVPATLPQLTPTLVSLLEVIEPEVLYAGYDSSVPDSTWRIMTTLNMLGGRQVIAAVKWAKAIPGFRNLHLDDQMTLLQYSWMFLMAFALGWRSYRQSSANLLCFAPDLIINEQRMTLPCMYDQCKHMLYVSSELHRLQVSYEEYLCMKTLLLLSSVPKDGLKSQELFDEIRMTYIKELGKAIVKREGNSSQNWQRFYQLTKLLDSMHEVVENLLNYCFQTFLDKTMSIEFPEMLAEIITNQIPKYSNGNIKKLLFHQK
Chain of Sodium-dependent dopamine transporter (Rattus norvegicus) (P23977 whole entry): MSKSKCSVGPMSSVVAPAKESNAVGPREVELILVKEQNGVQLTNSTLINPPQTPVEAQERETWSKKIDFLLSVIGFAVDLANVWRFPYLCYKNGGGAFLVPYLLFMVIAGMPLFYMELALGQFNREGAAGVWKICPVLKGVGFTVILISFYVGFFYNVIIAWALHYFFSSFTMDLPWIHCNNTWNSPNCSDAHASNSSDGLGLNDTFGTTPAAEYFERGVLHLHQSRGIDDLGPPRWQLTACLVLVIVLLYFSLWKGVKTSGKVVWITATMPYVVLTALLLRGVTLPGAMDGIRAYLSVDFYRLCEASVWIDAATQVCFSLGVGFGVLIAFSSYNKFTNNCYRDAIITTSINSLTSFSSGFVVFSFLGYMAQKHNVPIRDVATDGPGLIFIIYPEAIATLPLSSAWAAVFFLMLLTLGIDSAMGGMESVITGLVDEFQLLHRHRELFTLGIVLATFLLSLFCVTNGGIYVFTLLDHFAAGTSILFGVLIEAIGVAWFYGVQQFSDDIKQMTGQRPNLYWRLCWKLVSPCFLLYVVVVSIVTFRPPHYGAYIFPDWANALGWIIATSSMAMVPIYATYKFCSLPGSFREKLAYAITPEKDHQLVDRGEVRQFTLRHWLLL
Chain of Estrogen receptor (Homo sapiens) (P03372 whole entry): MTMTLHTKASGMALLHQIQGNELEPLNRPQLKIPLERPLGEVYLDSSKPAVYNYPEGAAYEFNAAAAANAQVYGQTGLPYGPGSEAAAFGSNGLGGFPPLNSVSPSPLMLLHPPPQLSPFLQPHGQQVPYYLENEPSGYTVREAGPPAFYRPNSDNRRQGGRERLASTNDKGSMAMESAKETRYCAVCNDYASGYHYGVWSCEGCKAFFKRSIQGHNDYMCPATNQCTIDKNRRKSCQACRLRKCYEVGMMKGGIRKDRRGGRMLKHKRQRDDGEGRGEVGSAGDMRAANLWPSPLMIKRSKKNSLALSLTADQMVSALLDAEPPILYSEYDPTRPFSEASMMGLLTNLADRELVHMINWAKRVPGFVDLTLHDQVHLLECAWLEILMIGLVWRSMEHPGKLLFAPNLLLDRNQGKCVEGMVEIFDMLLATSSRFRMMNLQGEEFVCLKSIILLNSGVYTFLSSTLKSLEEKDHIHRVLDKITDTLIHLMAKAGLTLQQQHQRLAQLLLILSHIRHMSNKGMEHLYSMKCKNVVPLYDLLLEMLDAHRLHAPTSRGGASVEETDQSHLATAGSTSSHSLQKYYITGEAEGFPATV

Cc1cc2cc(/N=C(/NC#N)N[C@H]3CCCCN(CC(=O)N4CCCC4)C3=O)ccc2o1
inhibition [1]: inactive | inhibition [2]: inactive | EC (Plasma): 30 µM | inhibition [3]: inactive | inhibition (Rattus norvegicus [4]): inactive | Activity (Rattus norvegicus [5]): Active | inhibition [6]: inactive | inhibition [7]: inactive | Ki [8]: > 10 µM | inhibition [9]: inactive | inhibition [10]: inactive | inhibition [11]: inactive | Activity (Rattus norvegicus [12]): Active | inhibition [13]: inactive | inhibition [14]: inactive | inhibition [15]: inactive | inhibition (Rattus norvegicus [16]): inactive | IC50 (cells): > 200 µM | inhibition (Mus musculus): inactive | inhibition [17]: inactive | inhibition [18]: inactive | inhibition [19]: inactive | ED50 (Rattus norvegicus [20]): 6 mg/kg | inhibition (Rattus norvegicus [21]): inactive | inhibition [22]: inactive | inhibition (Rattus norvegicus [23]): inactive | inhibition [24]: inactive | inhibition [25]: inactive | ED50 (Rattus norvegicus [26]): 25 mg/kg | inhibition [27]: inactive | inhibition (Rattus norvegicus [28]): inactive | inhibition (Rattus norvegicus [29]): inactive | inhibition (Rattus norvegicus [30]): inactive | inhibition [31]: inactive | inhibition (Rattus norvegicus [32]): inactive | Activity (Rattus norvegicus [33]): Dose-dependent effect | inhibition [34]: inactive | inhibition (Rattus norvegicus [35]): inactive | inhibition [36]: inactive | Ki [37]: > 16 µM | inhibition (Rattus norvegicus [38]): inactive
